Reference: PMC4624270 (Journal of the American Chemical Society, 2015)

Biological target: PikDH2 (PikKR2-DH2 didomain) (Streptomyces venezuelae, UniProt Q9ZGI5)
Experiment: time-dependent inactivation, Kitz-Wilson plot
Assay type: biochemical
Conditions: read-out: KI; covalent; mechanism-based irreversible inhibitor; substrate 2a; 10 to 40 μM inhibitor

Sequence of PikDH2 (PikKR2-DH2 didomain) (Q9ZGI5 3579-4365): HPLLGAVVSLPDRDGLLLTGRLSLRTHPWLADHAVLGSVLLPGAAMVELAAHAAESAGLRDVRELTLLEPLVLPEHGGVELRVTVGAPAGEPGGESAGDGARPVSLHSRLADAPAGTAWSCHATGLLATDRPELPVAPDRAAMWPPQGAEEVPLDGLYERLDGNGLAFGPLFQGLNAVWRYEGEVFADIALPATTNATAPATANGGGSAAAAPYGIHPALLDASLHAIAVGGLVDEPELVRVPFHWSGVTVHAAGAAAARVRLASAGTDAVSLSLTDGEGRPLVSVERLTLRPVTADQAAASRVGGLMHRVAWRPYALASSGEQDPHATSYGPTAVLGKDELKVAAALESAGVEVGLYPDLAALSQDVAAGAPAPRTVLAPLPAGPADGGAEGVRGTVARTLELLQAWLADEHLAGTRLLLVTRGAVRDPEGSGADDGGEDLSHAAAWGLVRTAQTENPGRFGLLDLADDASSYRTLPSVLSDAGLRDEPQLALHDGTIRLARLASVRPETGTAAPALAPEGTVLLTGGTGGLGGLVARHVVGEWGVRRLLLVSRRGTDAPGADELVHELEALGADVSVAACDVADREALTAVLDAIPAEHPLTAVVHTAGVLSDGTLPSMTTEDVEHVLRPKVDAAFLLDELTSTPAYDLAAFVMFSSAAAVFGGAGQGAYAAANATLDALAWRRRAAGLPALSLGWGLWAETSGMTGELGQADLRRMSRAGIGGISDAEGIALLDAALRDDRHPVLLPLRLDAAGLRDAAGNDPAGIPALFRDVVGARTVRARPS

KI (inactivation): 156 ± 34 µM
SMILES: CCCCCCC#CCC(=O)SCCNC(C)=O [compound 6, 3-Decynoyl-N-acetylcysteamine]
